{"source": "patent US20100048545A1", "about": "“Compounds and Compositions for Use in the Prevention and Treatment of Disorders of Fat Metabolism and Obesity” (INNODIA INC., priority 2006, published 2010)", "key": {"[1]": {"test_system": "Diet-Induced Obesity (DIO) mouse model", "test": "Compound 13e on body weight gain in the Diet-Induced Obesity (DIO) mouse model, 21 days", "type": "in vivo, C57BL/6 mice", "procedure": "The objective of this study was to determine the effect of one analog according to the invention, namely Compound 13e, on body weight gain in the Diet-Induced Obesity (DIO) mouse model.\nC57BL/6 mice were received at 7-8 weeks of age and fed a high fat diet (60% of calories from fat) for 8 weeks. Fasted glycemia and body weight values were used to randomize the mice into control and treatment groups (n=8). The average basal glycemia was between 213 and 215 mg/dL for all groups. The animals were treated twice daily by oral gavage with Compound 13e (25 or 50 mg per kg of body weight), and the control group received vehicle (200 mM bicarbonate buffer/0.1% Tween-20™, pH=9) alone. The animals were treated for 21 days. Body weight of the mice was measured on a frequent basis during the treatment. At the end of the study, the epididymal fat pads were isolated and weighed. Data are expressed as mean±SEM of body weight and mean±SEM of fat pad weight."}, "[2]": {"test_system": "C57BL/6 mice fed a high fat diet", "test": "Analogs and isomers of 4-hydroxyisoleucine on body weight gain in C57BL/6 mice fed a high fat diet, 3 days", "type": "in vivo", "settings": "for body weight gain induced by the high fat diet: 100 mg/kg twice daily oral gavage; for efficacy relative to compound 14a: 100 mg/kg twice daily", "procedure": "C57BL/6 mice were received at 6-7 weeks of age and fed a standard commercial chow for 1 week (acclimation period). The animals were randomized based on their body weight values, into control and treatment groups (n=6). Then, animals were shifted to a high fat diet (60% of calories from fat) and treated twice daily by oral gavage with 4-hydroxyisoleucine (4-OH, compound 14a) or different analogs and isomers of 4-OH at the dose of 100 mg per kg of body weight for 3 days. The control group (Control HFD) received vehicle (water) alone and a group was kept under standard chow (Control Lean). Body weight of the mice was recorded daily. Two different experiments were run and the effect on body weight gain of selected analogs and isomers according to the invention is presented in FIG. 30A (Experiment 1) and FIG. 30B (Experiment 2)."}, "obese mice": {"test_system": "obese mice", "test": "Compound 22 and 4-hydroxyisoleucine on weight gain of obese mice, 21 days", "type": "in vivo, C57BL/6 mice", "procedure": "The objective of the following study was to evaluate the effect of the lactone form of 4-hydroxyisoleucine (compound 22) on the weight gain of obese mice. 40 C57BL/6 mice were fed a high fat diet (60% of calories from fat) for 6 weeks in order to induce obesity. Animals were than randomized to 5 study groups of 8 mice each according to their body weight values. Thereafter, the animals were treated orally twice daily with either the water vehicle, 50 mg/kg of compound 22, 100 mg/kg of compound 22, 50 mg/kg of 4-hydroxyisoleucine or 100 mg/kg of 4-hydroxyisoleucine. The treatment lasted 21 days and body weight of mice were determined daily from day 1 to day 21 of the study."}, "3T3-L1 pre-adipocytes": {"test_system": "3T3-L1 pre-adipocytes", "test": "Lipid accumulation in 3T3-L1 adipocytes (Oil red O, OD 490 nm)", "type": "cell-based", "settings": "7 days in differentiation medium, compared to controls", "from_the_text": "The objective of the study was to evaluate if the compounds of the present invention, and more particularly analogs of 4-Hydroxyisoleucine, can decrease the accumulation of lipids in pre-adipocytes induced to differentiate into functional adipocytes. […] Treating the fibroblasts with a differentiation medium containing insulin, dexamethasone and […] (IBMX) in the presence of serum induces these cells to become terminally differentiated adipocytes. These cells convert to spherical shape and accumulate lipid droplets.\n3T3-L1 were cultured in presence of DMEM and 10% FBS for a week in 6-well plates. The medium was than changed to induce differentiation of cells into mature adipocytes. The medium consisted of DMEM, 10% FBS, 0.5 mM IBMX, 0.01 mg/ml insulin and 0.1 μM dexamethasone, with or without compounds of the present invention. The cells were cultured for 7 days and then stained with Oil red 0, a dye which specifically stain lipids. The fat content of treated and untreated cells was quantified by measuring the optical density (OD, 490 nm) with a spectrophotometer."}, "[3]": {"test_system": "Diet Induced Obesity (DIO)-Mice", "type": "in vivo", "procedure": "A total of 40 animals were used in the study. The animals were distributed into 5 groups (4 treated, 1 control group, all on high fat diet). Each group was composed of 8 animals.\n4-OH was aliquoted and kept at 4° C. […] Mice from groups 4 and 5 were treated twice daily with 50 and 100 mg/kg of compound 65a. All groups were treated by oral gavage. Treatment commenced on Day 0 and ended on Day 7 (FIG. 37A). Body weights were measured daily."}, "DIO-mice": {"test_system": "DIO-mice", "from_the_text": "The objective of this study was to evaluate the effect of chronic administration of 4-hydroxyisoleucine (4-OH, compound 14a) and Rosiglitazone, administered alone or in combination, on food consumption and body weight gain of DIO-mice. Both parameters were monitored for 1 week prior to the commencement of treatment, then for the 28 days of treatment and for an additional 7 days post-treatment.\nA total of 72 animals were used in the study. The animals were distributed into 6 groups (5 treated, 1 control group, all on high fat diet). Each group was composed of 12 animals. The mice were randomized according to body weight and basal glycemia values following a 5±0.5 hour fasting period.\nFor the four weeks of treatment, the test articles were dissolved in reverse osmosis water. 4-Hydroxyisoleucine was aliquoted and kept at 4° C. (administration to groups 2, 3, and 6), while Rosiglitazone was freshly prepared daily and kept at 4° C. between the AM and PM administration to groups 4, 5, and 6. Control animals received reverse osmosis water twice daily (group 1). Mice from groups 2 and 3 were treated twice daily with 4-OH at 50 and 100 mg/kg, respectively. Animals from groups 4 and 5 received 1.5 and 5 mg/kg of Rosiglitazone, respectively. […] All groups were treated by oral gavage. Treatment commenced on Day 0 and ended on Day 28 (FIGS. 18A and 18C.\nFood consumption was measured and averaged on a weekly basis beginning one week before the start of treatment as shown in FIGS. 18B and 18D as week −1. Similarly, food consumption was monitored for one week after treatment was stopped and is shown as week 5 in FIGS. 18B and 18D, In FIG. 18B, the food consumption over time for various treatment groups is illustrated by the bar graph."}}, "note": "“Also recorded” adds a separate entry of the source. Counter-ions that a name gives are not always drawn.", "data": [{"smiles": "N[C@H](C(=O)O)[C@@H]1CCCC[C@H]1O", "note": "[Compound 13e, (S)-2-amino-2-((1S,2R)-2-hydroxycyclohexyl)acetic acid]", "values": [{"measurement": "epididymal fat pad weight", "setting": "[1]; 25 or 50 mg/kg twice daily", "value": "reduction of epididymal fat pad weight"}, {"measurement": "body weight gain (delta of body weight from Day 0)", "setting": "[1]; 25 or 50 mg/kg twice daily oral gavage", "value": "reduction of body weight; also recorded: reduction in body weight gain compared to vehicle treated mice and this effect was dose-dependent"}]}, {"smiles": "C[C@H]([C@@H](C)O)[C@@H](N)C(=O)O", "note": "[Compound 14aa, (2R,3S,4R)-4-Hydroxyisoleucine]", "values": [{"measurement": "body weight gain induced by the high fat diet", "setting": "[2]", "value": "reduced body weight gain induced by the high fat diet"}]}, {"smiles": "CC1C(O)CN[C@@H]1C(=O)O", "note": "(stereo partly shown) [Compound 22]", "values": [{"measurement": "body weight", "setting": "obese mice; 100 mg/kg orally twice daily, 21 days, vs water control, p<0.01", "value": "significant reduction of body weight compared to the water control group"}, {"measurement": "white fat mass (epididymal fat)", "setting": "obese mice; 100 mg/kg, end of treatment, p<0.01", "value": "loss of the white fat mass (epididymal fat)"}, {"measurement": "weight loss relative to 4-hydroxyisoleucine", "setting": "obese mice; same dose level of 100 mg/kg, p<0.05", "value": "significantly greater than the weight loss caused by 4-hydroxyisoleucine"}]}, {"smiles": "CC(C)(C)C(O)CC(N)C(=O)O", "note": "(stereo not shown) [Compound 62, 2-amino-4-hydroxy-5,5-dimethyl-hexanoic acid]", "values": [{"measurement": "efficacy relative to compound 14a", "setting": "[2]", "value": "greater efficacy than the SRS isomer of 4-OH"}, {"measurement": "body weight gain induced by the high fat diet", "setting": "[2]", "value": "reduced body weight gain induced by the high fat diet"}, {"measurement": "lipid accumulation", "setting": "3T3-L1 pre-adipocytes", "value": "dose-dependently decreased the lipid accumulation; also recorded: decrease of accumulation of lipids"}]}, {"smiles": "CC1(O)CC(C(=O)O)NCC1O", "note": "(stereo not shown) [Compound 65a, 4-methyl-4,5-dihydroxypipecolic acid]", "values": [{"measurement": "efficacy relative to compound 14a", "setting": "[2]", "value": "greater efficacy than the SRS isomer of 4-OH"}, {"measurement": "body weight gain induced by the high fat diet", "setting": "[2]", "value": "reduced body weight gain induced by the high fat diet"}, {"measurement": "tolerability of treatment", "setting": "[3]; 50 and 100 mg/kg twice daily oral gavage, one week", "value": "well tolerated"}, {"measurement": "weight gain", "setting": "[3]; 50 and 100 mg/kg twice daily, first week of treatment", "value": "moderation of weight gain was observed"}, {"measurement": "food consumption", "setting": "[3]; first week of treatment", "value": "slight decrease in food consumption"}]}, {"smiles": "O=C(O)[C@@H]1C[C@H](O)CN1", "note": "[Compound 75, cis-4-hydroxyproline]", "values": [{"measurement": "body weight gain induced by the high fat diet", "setting": "[2]", "value": "reduced body weight gain induced by the high fat diet"}, {"measurement": "lipid accumulation", "setting": "3T3-L1 pre-adipocytes", "value": "dose-dependently decreased the lipid accumulation; also recorded: decrease of accumulation of lipids"}]}, {"smiles": "COC(=O)[C@@H]1C[C@H](O)CN1", "note": "[Compound 76, cis-4-hydroxyproline methyl ester HCl salt]", "values": [{"measurement": "body weight gain induced by the high fat diet", "setting": "[2]", "value": "reduced body weight gain induced by the high fat diet"}, {"measurement": "lipid accumulation", "setting": "3T3-L1 pre-adipocytes; HCl salt", "value": "dose-dependently decreased the lipid accumulation; also recorded: decrease of accumulation of lipids"}]}, {"smiles": "CC(=O)N[C@@H]1C(=O)O[C@@H](C)[C@@H]1C", "note": "[Compound 104]", "values": [{"measurement": "body weight gain induced by the high fat diet", "setting": "[2]", "value": "reduced body weight gain induced by the high fat diet"}]}, {"smiles": "COC(=O)[C@H]1C[C@@H](O)CN1", "note": "[Compound 202]", "values": [{"measurement": "body weight gain induced by the high fat diet", "setting": "[2]", "value": "reduced body weight gain induced by the high fat diet"}]}, {"smiles": "CN(CCOc1ccc(CC2SC(=O)NC2=O)cc1)c1ccccn1", "note": "(stereo not shown) [Rosiglitazone, reference compound]", "values": [{"measurement": "food consumption", "setting": "DIO-mice; Rosiglitazone 1.5 mg/kg alone", "value": "increase in food consumption"}, {"measurement": "weight", "setting": "DIO-mice; Rosiglitazone alone, relative to the other groups", "value": "significant increase in weight relative to the other groups"}]}]}
